For one experiment, the system named is HSF1-stress pathway. Put plainly: ArrayScan HSP72 protein assay (HSF1-stress pathway inhibition, 17-AAG induced). To be noted: for IC50: Homo sapiens, U2OS, read-out: HSF1 IC50; for fold increase in HSF1-stress pathway inhibition / fold drop in potency in the HSF1-stress pathway assay: relative to compound 3.
The target in another experiment is CDK2/cyclinE (Homo sapiens, UniProt P24941). Put plainly: CDK2 enzyme assay: off-chip mobility shift assay. Format: biochemical. The arrangement: purchased Upstate/Millipore. To be noted: for IC50: biochemical, CDK2/cyclinE, average of two determinations; for fold improvement in CDK2 inhibition / fold drop in potency in the CDK2 assay: relative to compound 3. The procedure: CDK2 enzyme assay: Off-chip Mobility SHIFT Assay
All reagents were purchased from Sigma-Aldrich unless otherwise specified. Inhibition of CDK2/cyclinE activity was quantified using an off-chip incubation, mobility shift assay, which uses a microfluidic chip (Caliper Life Sciences) to measure the conversion of a fluorescent peptide substrate to phosphorylated product. An Off-chip Mobility Shift Chip with 12 sippers (Caliper Life Sciences) was prepared for use according to the manufacturer’s instructions using Coating Reagent #3 (Caliper Life Sciences). The off-chip incubation was carried out in white, 384-well, flat bottom, low volume assay plates (Greiner). 5 µL peptide mix (1.5 µM substrate peptide (fluorescein-QSPKKG-CONH2, Bachem) and 90 µM ATP in kinase base buffer (50 mM HEPES, pH7.5 (Calbiochem), 0.06% CHAPSO)) were added to each well of the prepared compound plates which contained 120 nL compound stock solution per well. The reaction was then initiated by the addition of 6 µL enzyme mix (1.0 nM CDK2/cyclin E (Upstate/Millipore), 1.0 mM DTT and 5.0 mM MgCl2 in kinase base buffer). After incubation for 60 min at room temperature, each reaction was terminated by the addition of 10µL of stop solution containing 100 mM HEPES pH 7.5 (Calbiochem), 0.033% Brij-35, 0.22% Coating Reagent #3 (Caliper Life Sciences), 44 mM EDTA and 5 % DMSO. Reaction products were analysed using a Caliper LabChip LC3000 instrument and peak height was used to calculate percentage conversion of substrate to product.
For compound response testing, a 12 point compound concentration range was used. Compounds were acoustically dosed (Echo 555; Labcyte) into assay-ready plates using 11 half log intervals from 100 μM to […] plus a 12th point at 0.01 μM. Each well was backfilled with the required volume up to 120 nL of 100% DMSO to ensure a final 1% v/v DMSO concentration in the assay. In addition to the compound test wells, each plate carried maximum and minimum controls. Staurosporine at 10 μM was used to inhibit CDK2 activity for the minimum control. As a maximum control, 120 nL pure DMSO was added to the wells. Each plate contained at least 11 randomly distributed maximum and minimum controls. After the addition of compounds to the assay plates, the assay was performed as detailed above. Percentage conversion of substrate to product was used to calculate the effect of each compound on the kinase activity of CDK2/cyclinE. Enzyme inhibition model 3, non-linear curve fit analysis within OriginLab™ software was used to fit dose response curves and estimate the […]
concentration of compound required to reduce the enzyme activity to 50% of the conversion calculated from an average of the maximum controls.
Cell-based ELISA (Cellisa) for HSP72 expression
To follow HSP72 protein expression, a product of HSF1 transcriptional activity, Cellisa was developed. Cells (5-8x10^4cells/ml) were seeded into 96-well plates and incubated at 37 °C for 48 h.
Compounds were then added at a range of concentrations and incubated for 1 h before addition of 17-AAG (250 nM). Cells were then incubated for 18 h. The medium was removed and cells were fixed with fixing solution (4% paraformaldehyde, 0.3% TritonX-100 in PBS) for 30 min at 4 °C. The plates were then washed with 0.1% Tween-20/deionised water before blocking with 5% milk for 30 min at 37 °C. After washing the plates, HSP72 antibody (SPA-810, Enzo Life) was added for 1.5 h at 37 °C.
Following 4 x washes, the plates were incubated with europium-labelled anti-mouse antibody (0.6ug/ml) in Delfia assay buffer (Perkin Elmer) for 1 h at 37 °C. After washing the plates, Delfia enhancement solution was added, shaken for 10 min before reading in the Envision plate reader (Perkin-Elmer) with excitation at 340 nm and emission at 615 nm. The plates were washed again before protein determination using the BCA assay. The europium counts were normalised for the amount of protein in each well. The 50% inhibitory concentration value of the compound was then calculated and presented. […]

The target in the next experiment is T1, CDK9/cyclin T1 (Homo sapiens, UniProt P50750).
T1 construct: purchased EMD Millipore screening panel (now Eurofins)
T1 sequence (P50750 whole entry): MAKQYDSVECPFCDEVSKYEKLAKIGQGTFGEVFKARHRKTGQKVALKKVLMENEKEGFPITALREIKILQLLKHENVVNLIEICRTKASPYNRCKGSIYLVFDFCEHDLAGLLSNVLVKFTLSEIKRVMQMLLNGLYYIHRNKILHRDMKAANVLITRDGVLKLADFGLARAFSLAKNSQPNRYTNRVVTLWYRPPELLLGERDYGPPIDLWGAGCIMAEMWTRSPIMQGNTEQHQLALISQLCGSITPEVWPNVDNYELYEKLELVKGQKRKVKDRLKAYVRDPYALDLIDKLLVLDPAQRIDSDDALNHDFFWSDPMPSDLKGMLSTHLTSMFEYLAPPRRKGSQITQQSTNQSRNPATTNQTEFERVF
T1 sequence (O60563 whole entry partner): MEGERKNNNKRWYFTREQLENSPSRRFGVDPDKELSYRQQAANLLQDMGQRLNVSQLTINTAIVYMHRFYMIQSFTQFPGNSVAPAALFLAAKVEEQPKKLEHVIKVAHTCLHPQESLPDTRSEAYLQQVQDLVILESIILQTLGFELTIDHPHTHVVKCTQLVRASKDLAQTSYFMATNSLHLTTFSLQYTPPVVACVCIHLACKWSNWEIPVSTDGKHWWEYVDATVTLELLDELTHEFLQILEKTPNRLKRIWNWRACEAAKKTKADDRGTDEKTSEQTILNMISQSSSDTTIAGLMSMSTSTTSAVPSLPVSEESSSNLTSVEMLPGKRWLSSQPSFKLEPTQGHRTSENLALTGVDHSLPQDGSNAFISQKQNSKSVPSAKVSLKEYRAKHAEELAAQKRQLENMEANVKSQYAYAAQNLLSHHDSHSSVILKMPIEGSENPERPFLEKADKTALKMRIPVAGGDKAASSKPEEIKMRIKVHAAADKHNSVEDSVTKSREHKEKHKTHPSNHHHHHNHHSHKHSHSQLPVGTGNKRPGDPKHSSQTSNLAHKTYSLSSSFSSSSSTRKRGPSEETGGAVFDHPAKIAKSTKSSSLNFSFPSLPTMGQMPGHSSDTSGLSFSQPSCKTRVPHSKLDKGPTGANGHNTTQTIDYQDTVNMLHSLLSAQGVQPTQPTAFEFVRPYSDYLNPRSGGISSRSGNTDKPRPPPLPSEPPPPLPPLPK
The experiment in a line: EMD Millipore (Eurofins) CDK panel. Format: biochemical. The settings on record: EMD Millipore screening panel, N = 1. The procedure: Therefore 4,6-pyrimidine 3 was submitted to a EMD Millipore CDK panel to assess potency across the selected CDK family members (Table 3). Modest activity was observed against several CDKs; […]. […]. page 4: […]
mM Mg Acetate and […] (specific activity approx. 500 cpm/pmol, concentration as required). The reaction is initiated by the addition of the MgATP mix. After incubation for 40 minutes at room temperature, the reaction is stopped by the addition of 3% phosphoric acid solution. 10 μL of the reaction is then spotted onto a P30 filtermat and washed three times for 5 minutes in 75 mM phosphoric acid and once in methanol prior to drying and scintillation counting. […]
CDK9/cyclinT1 (h) is incubated with 8 mM MOPS pH 7.0, 0.2 mM EDTA, 100 μM […]
, 10 mM MgAcetate and […]
(specific activity approx. 500 cpm/pmol, concentration as required). The reaction is initiated by the addition of the MgATP mix. After incubation for 40 minutes at room temperature, the reaction is stopped by the addition of 3% phosphoric acid solution. 10 μL of the reaction is then spotted onto a P30 filtermat and washed three times for 5 minutes in 75 mM phosphoric acid and once in methanol prior to drying and scintillation counting. […]

The subject of a further experiment is CDK7/CyclinH/MAT1. To be noted: ratio between CDK2/7/9; ref Yin et al., Mol. Cancer Ther., 2014, 13, 1442-1456; cited from earlier work.
In experiment [1] the test system is CDK9/CyclinT1. To be noted: ratio between CDK2/7/9; ref Yin et al., Mol. Cancer Ther., 2014, 13, 1442-1456; cited from earlier work.
In a further experiment the test system is U2OS cells. The experiment in a line: SRB cell growth inhibition assay. The class given is cell-based. The settings on record: Homo sapiens, 96 h, read-out: SRB GI50.
Experiment [2] has as its system HSF1-mediated HSP72 induction. The experiment in a line: Cell-based ELISA (Cellisa) for HSP72 expression. The settings on record: Homo sapiens, U2OS, read-out: HSF1 IC50 (cell-ELISA, HSP72 induction inhibition). (In general: ELISA stands for enzyme-linked immunosorbent assay.)
Experiment [3] relates to CDK9/CyclinT1. Put plainly: Adapta screen assay, Life Technologies. To be noted: ratio between CDK2/7/9, below limit of assay detection.

Read-outs that look alike come from different tables or passages of the source. Some results are limits rather than exact numbers.

Method for HSF1-stress pathway: To discover inhibitors of the HSF1-stress pathway, we employed an automated cellular imaging and analysis method (ArrayScan™) that quantifies the ability of a compound to suppress the expression of the HSF1-mediated inducible HSP70 isoform, HSP72.
U2OS cells (1500 per well) were plated in 40 μL of DMEM media (containing 10% fetal calf serum and 2 mM Glutamax T-1) in costar 384-well plates and left overnight at 37 °C and 5% CO2 to adhere.
treatment with compound, all wells except min wells were dosed with 17AAG diluted in DMSO (10
°C and 5% CO2. The following day the cells were fixed by addition of 20 μL/well of 12% formaldehyde with 1:1700 Hoechst in PBS for 10 min at room temperature. The fixative was decanted and the wells washed once with 50 μL of phosphate buffer saline (PBS).The PBS was subsequently aspirated, and the cells were permeabilized by addition of 20 μL/well of PBS 0.3% Triton X-100 for 20 min at room temperature. The wells were then washed with 80 μL of PBS prior to the addition of 20 μL of combined primary and secondary antibodies diluted in PBS (1:10 000 mouse anti-Hsp72
11001 molecular probes), for 2 h at room temperature. The wells were then washed with 50 μL of PBS. Finally, 50 μL of PBS was added to each well, and the plates were sealed ready to analyze.
Analysis was carried out using a Cellomics Arrayscan VTI instrument and the Cellomics Arrayscan Compartmental Analysis algorithm to measure cellular levels of HSP72.
100 μM to 0.1 μM plus a 12th point at 0.01 μM. Each well was backfilled with the required volume up to 120 nL of 100% DMSO to ensure a final 1% v/v DMSO concentration in the assay. In addition to the compound test wells, each plate carried maximum and minimum controls. Staurosporine at 10 μM was used to inhibit CDK2 activity for the minimum control. As a maximum control, 120 nL pure DMSO was added to the wells. Each plate contained at least 11 randomly distributed maximum and minimum controls. After the addition of compounds to the assay plates, the assay was performed as detailed above. Percentage conversion of substrate to product was used to calculate the effect of each compound on the kinase activity of CDK2/cyclinE. Enzyme inhibition model 3, non-linear curve fit analysis within OriginLab™ software was used to fit dose response curves and estimate the

By IC50 is commonly meant the midpoint of a concentration-inhibition curve. For `OCCc1ccc(Nc2cc(-n3cnc4ccccc43)ncn2)cc1` [Compound 1], the IC50 in the experiment with HSF1-stress pathway is 2000 nM; at CDK2/cyclinE it was 1140 nM.

As to `CN1CCN(c2ccc(Nc3cc(-n4cnc5ccccc54)ncn3)nc2)CC1` [Compound 21], the IC50 stood at 22 nM against CDK9/cyclin T1, 450 nM in the experiment with HSF1-stress pathway and 643 nM at CDK2/cyclinE.

Turning to `CN(C)CCOc1ccc(Nc2cc(-n3cnc4cccnc43)ncn2)nc1` [Compound 10], the figures for the IC50 with HSF1-stress pathway and at CDK2/cyclinE were 760 nM and 1600 nM, respectively.

As for `CN(C)C1CCN(c2ccc(Nc3cc(-n4cnc5ccccc54)ncn3)nc2)CC1` [Compound 23], the IC50 with HSF1-stress pathway turned out to be 610 nM; at CDK2/cyclinE it was 776 nM.

For `CN(C)CCOc1ccc(Nc2cc(-n3cnc4ncccc43)ncn2)nc1` [Compound 11], in the experiment with HSF1-stress pathway, the IC50 was determined as 28 nM and the “fold increase in HSF1-stress pathway inhibition” value is recorded as 3 fold. Also, on CDK2/cyclinE, the IC50 amounted to 161 nM and the “fold improvement in CDK2 inhibition” value was found to be 5 fold.

Regarding `CN1CCC[C@@H]1COc1ccc(Nc2cc(-n3cnc4ccccc43)ncn2)nc1` [Compound 17], the figures for the IC50 against CDK9/cyclin T1 and at CDK2/cyclinE were 8 nM and 492 nM, respectively.

As for `CC(C)c1c2cc(-c3ccnc(NC4CCC(NC5CCOCC5)CC4)n3)ccc2nn1C` (stereo not drawn) [LY2857785], the ratio of activity CDK7/CyclinH/MAT1 in the experiment on CDK7/CyclinH/MAT1 was 22. Also, in the experiment on CDK9/CyclinT1 [1], the ratio of activity CDK9/CyclinT1 was 1.

Regarding `CN(C)CCOc1ccc(Nc2cc(-n3ncc4ccccc43)ncn2)nc1` [Compound 7], the IC50 with HSF1-stress pathway was more than 30000 nM; at CDK2/cyclinE it was 29800 nM.

With `c1ccc2c(c1)ncn2-c1cc(Nc2ccc(OCCN3CCOCC3)cn2)ncn1` [Compound 18], the IC50 with HSF1-stress pathway turned out to be 295 nM; on CDK2/cyclinE it was 554 nM.

In the case of `CN(C)CCCOc1ccc(Nc2cc(-n3cnc4ccccc43)ncn2)nc1` [Compound 4], the IC50 in the experiment with HSF1-stress pathway came out at 165 nM; on CDK2/cyclinE it was 368 nM.

With `C[C@H]1CN(C)CCN1c1ccc(Nc2cc(-n3cnc4ccccc43)ncn2)nc1` [Compound 22], the IC50 in the experiment with HSF1-stress pathway turned out to be 1380 nM; at CDK2/cyclinE, 836 nM.

For the compound `c1ccc2c(c1)ncn2-c1cc(Nc2ccc(OCCN3CCCCC3)cn2)ncn1` [Compound 19], the IC50 came to 8 nM against CDK9/cyclin T1, 57 nM in the experiment with HSF1-stress pathway and 358 nM on CDK2/cyclinE. Also, the “fold increase in HSF1-stress pathway inhibition” value with HSF1-stress pathway stood at 2 fold.

With `Cc1nc2ccccc2n1-c1cc(Nc2ccc(OCCN(C)C)cn2)ncn1` [Compound 13], in the experiment on HSF1-stress pathway, the IC50 was 4280 nM and the “fold drop in potency in the HSF1-stress pathway assay” value is listed as more than 7 fold. Besides, on CDK2/cyclinE, the IC50 turned out to be 4610 nM and the “fold drop in potency in the CDK2 assay” value was more than 7 fold.

On to `CN(C)CCOc1ccc(Nc2cc(-n3ccc4ccccc43)ncn2)nc1` [Compound 8], for which the IC50 with HSF1-stress pathway was determined as 2330 nM; at CDK2/cyclinE, 4430 nM.

What is called GI50 is the concentration that inhibits growth by half. On to `CC(C)(C)c1cnc(CSc2cnc(NC(=O)C3CCNCC3)s2)o1` [SNS-032, reference compound], for which the GI50 in the experiment on U2OS cells (U2OS) worked out at 370 nM. In addition, in experiment [2], the IC50 is 750 nM.

Consider `CN(C)CCOc1ccc(Nc2cc(-n3cnc4ccccc43)ncn2)cc1` [Compound 2], for which the “fold difference in activity between the CDK2 and HSF1-stress pathway assays” value with HSF1-stress pathway (CDK2 IC50 versus HSF1 IC50) is reported as 15 fold. In addition, the IC50 with HSF1-stress pathway was 1350 nM; on CDK2/cyclinE, 20000 nM.

Regarding `Cc1ccc2ncn(-c3cc(Nc4ccc(OCCN(C)C)cn4)ncn3)c2c1` [Compound 12], the IC50 amounted to 39 nM with HSF1-stress pathway and 121 nM at CDK2/cyclinE.

As to `CN(C)CCCc1ccc(Nc2cc(-n3cnc4ccccc43)ncn2)nc1` [Compound 15], the IC50 with HSF1-stress pathway amounted to 198 nM; on CDK2/cyclinE it was 690 nM.

For `c1cnc2ncn(-c3cc(Nc4ccc(OCCN5CCCCC5)cn4)ncn3)c2c1` [Compound 25], in the experiment on CDK9/CyclinT1 [3], the “ratio of activity CDK9/CyclinT1” value stood at 1. In the experiment on U2OS cells (U2OS cells, single agent, average of two determinations), the GI50 was 5 nM. Besides, the IC50 in the experiment with HSF1-stress pathway came out at 15 nM; on CDK2/cyclinE, 55 nM; in experiment [2] it was 15 nM.

`CN(C)CCOc1ccc(Nc2cc(-n3ccnc3)ncn2)nc1` [Compound 6] showed a half-maximal inhibitory concentration (IC50) against CDK9/cyclin T1 of 88 nM. For the same compound, in the experiment with HSF1-stress pathway, the IC50 worked out at 6150 nM and the “fold drop in potency in the HSF1-stress pathway assay” value turned out to be 77 fold. Further, at CDK2/cyclinE, the IC50 is 7100 nM and the “fold drop in potency in the CDK2 assay” value was found to be 12 fold.

Take `CN1CCC[C@H]1COc1ccc(Nc2cc(-n3cnc4ccccc43)ncn2)nc1` [Compound 16]: the IC50 at CDK2/cyclinE stood at 535 nM.

`CN(C)CCOc1ccc(Nc2cc(-c3cnc4ccccc4c3)ncn2)nc1` [Compound 9]: the IC50 in the experiment with HSF1-stress pathway was 17600 nM; on CDK2/cyclinE it was more than 100000 nM. In addition, in the experiment on HSF1-stress pathway, the “fold drop in potency in the HSF1-stress pathway assay” value is approximately 200 fold. Besides, at CDK2/cyclinE (compared to benzimidazole 3), the “activity in the CDK2 assay” value was “inactive”.

As for `CN1CCC(Oc2ccc(Nc3cc(-n4cnc5ccccc54)ncn3)nc2)CC1` [Compound 20], the figures for the IC50 in the experiment on HSF1-stress pathway and on CDK2/cyclinE were 884 nM and 1240 nM, respectively.

For `c1ccc(Nc2cc(-n3cnc4ccccc43)ncn2)nc1` [Compound 14], in the experiment with HSF1-stress pathway, the IC50 was 842 nM and the “fold drop in potency in the HSF1-stress pathway assay” value came out at 10 fold. Also, at CDK2/cyclinE, the IC50 came to 59 nM and the “fold improvement in CDK2 inhibition” value worked out at 10 fold.

For the compound `CN1CCC[C@H]1COc1ccc(Nc2cc(-n3cnc4ncccc43)ncn2)nc1` [Compound 24], the IC50 on CDK2/cyclinE came out at 146 nM.

These data come from article PMC5048338, “Discovery of 4,6-disubstituted pyrimidines as potent inhibitors of the heat shock factor 1 (HSF1) stress pathway and CDK9” (Medchemcomm, 2016).
